# Measured values from US9267129B2, “Compositions and methods for conferring herbicide resistance” (BEN-GURION UNIVERSITY OF THE NEGEV RESEARCH AND DEVELOPMENT …, priority 2011, dated 2016).
# System: E. coli BUM1 transformed with pAH29 (bacterial AHASII)
# Assay: Growth on M9 plates with SMM, bacteria transformed with pAH29
# Assay type: cell-based, Escherichia coli
# Conditions: 50 μM SMM, 48 hrs, 37° C.
# Description: This strain also requires proline and thiamin, regardless of AHAS expression. Transformation of BUM1 cells was achieved using a standard heat shock protocol. BUM1 cells were grown in LB or in M9 minimal medium (7 mg/ml Na2HPO4; 3 mg/ml KH2PO4; 0.5 mg/ml NaCl; 1 mg/ml NH4Cl; 0.12 mg/ml MgSO4; 0.35 mg/ml thiamin HCl; 2 mg/ml glucose) supplemented with 200 μg/ml proline. Where appropriate, the M9 medium was supplemented with the BCAAs valine, leucine, and isoleucine (150 μg/ml of each) or with 50 μM SMM. BUM1 transformants were propagated and kept on LB medium supplemented with 100 μg/ml Ampicillin. For functional expression assays, the cells were washed and plated on M9 agar plates and incubated for 48 hrs at 37° C. […]
# The expression vector pEp-empty, an empty plasmid that retains the native ilvEp promoter and ATG start codon, was created by amplification of pAH29 plasmid with the pAH29-empty primer set, and included BamHI and SalI restriction sites for future fusion with the algal genes. Three forms of PiAHAS genes were used for this experiment: PiAHAS full open reading frame (ORF), truncated PiAHAS without the estimated chloroplast targeting peptide (from Serine91), and PimAHAS containing the point mutation (W605S). […] The plates were incubated for 48 hrs (FIG. 3) and bacterial growth was determined. […]
smiles,measurement,value
"COC(=O)c1ccccc1S(=O)(=O)NC(=O)Nc1nc(C)cc(C)n1 [SMM, sulfometuron methyl]",bacterial growth in presence of SMM,able to grow slowly
